We go through 17 molecules from patent US7745439B2, “Indene derivatives and process for the preparation thereof” (Korea Research Institute of Chemical Technology, priority 2004, dated 2010).

One series addresses T1, human PPARγ (Homo sapiens, UniProt P37231).
T1 construct: expressed in transfected cells; host or cells: NIH/3T3
T1 sequence (P37231 238-503 limits assumed): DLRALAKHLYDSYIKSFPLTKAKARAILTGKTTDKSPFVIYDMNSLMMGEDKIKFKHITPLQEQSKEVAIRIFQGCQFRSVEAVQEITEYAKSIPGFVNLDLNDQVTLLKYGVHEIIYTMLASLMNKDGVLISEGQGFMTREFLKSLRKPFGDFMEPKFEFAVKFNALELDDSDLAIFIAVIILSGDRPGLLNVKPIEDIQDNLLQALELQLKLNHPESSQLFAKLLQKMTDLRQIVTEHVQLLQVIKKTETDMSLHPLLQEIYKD
As to the kind of experiment: PPARγ activation test (GAL-4/luciferase reporter in NIH/3T3 cell). In kind it is cell-based. The conditions noted are these: luciferase activity, 24 hrs incubation. How it is done:
The activity for PPARγ activation was examined as follows.
The vector fused with ligand binding domain of a human PPARγ gene and DNA binding site of a yeast GAL-4 gene, and luciferase reporter vector were simultaneously transfected in NIH/3T3 cell. The cells were cultured for 24 hrs. The solution containing the cells at a concentration of 2×10^4 cells/well was placed on a 96-well plate. Then, each of the test compounds of the present invention and the control group without test compounds was added thereto. After incubating for 24 hrs, the cells were subjected to lysis.
On the technique in general: In a reporter assay the amount or activity of a reporter protein is the signal.

Series [1] concerns C57/BL6J mice. The experiment in a line: Adverse side effects check (weight, heart weight, liver weight, GPT/GOT) in high fat diet C57/BL6J mice. The conditions noted are these: for GOT / GPT / Heart Weight / Liver Weight / Weight: high fat diet C57/BL6J mice.
Protocol: (§2) To check possible adverse side effects caused by the administration of the compound, the weight, heart weight and liver weight of each mouse were measured. GPT and GOT values were also calculated by employing a kit available in the market.
The test system of series [2] is ob/ob mice. The conditions noted are these: relative to control. How it is done:
The effectiveness in lowering blood glucose level of the inventive compound was examined using ob/ob mice (male, 8-9 week old), a type 2 diabetes model animals which expresses signs of hyperglycemia and hyperinsulinemia, bred in house facilities of Korea Research Institute of Chemical Technology.
(§1) The resulting solution was intraperitoneally administered to the mice at a dose of 50 mg/kg, once a day for 5 days, or orally administered to the mice, at a dose of 100 mg/kg, twice a day for 14 days. Days 1, 3 and 5 were selected for intraperitoneal administration, and days 5, 10 and 14, for oral administration, to collect blood samples for measuring the blood glucose levels. […] Upon the completion of the oral administration for 14 days, the mice were fasted for 16 hrs to perform OGTT (Oral Glucose Tolerance Test) to determine the changes in insulin sensitivity induced by the oral administration. After administrating glucose to the mice at a dose of 2 g/kg orally, blood samples were collected at 0, 15, 30 60 and 120 minutes to measure blood glucose levels.

The subject of series [3] is C57/BL6J mice. The conditions noted are these: high fat diet C57/BL6J mice, after oral administration for 14 days once a day. As for the experimental part: as §1
Series [4] has as its system ob/ob mice. The conditions noted are these: total amount of blood glucose over 120 minutes after glucose 2 g/kg orally, after 14 days oral administration. How it is done:
as §1

Series [5] relates to C57/BL6J mice.
Protocol: as §2
[6] abbreviates: high fat diet C57/BL6J mice, oral administration for 14 days once a day.

Read-outs that look alike come from different tables or passages of the source.

The EC50 is the concentration needed to bring the measured effect to its halfway point. A high value points to lower potency in that assay. Take `CCOC(=O)C1=C(c2ccccc2)c2ccc(OC)cc2C1(O)C(C)C` (centres unmarked) [Compound 3, 1-hydroxy-1-isopropyl-6-methoxy-3-phenyl-1H-indene-2-carboxylic acid ethyl ester]: it took 250 nM to reach a half-maximal effect at human PPARγ (EC50).
`CCOC(=O)C1=C(c2ccccc2)c2ccc(OC)cc2C1(C)O` (centres unmarked) [Compound 4, 1-hydroxy-6-methoxy-1-methyl-3-phenyl-1H-indene-2-carboxylic acid ethyl ester]: at human PPARγ, the EC50 was determined as 230 nM.
For the molecule `CCOC(=O)C1=C(c2ccccc2)c2ccc(OC)cc2C1(O)Cc1ccccc1` (centres unmarked) [Compound 5, 1-benzyl-1-hydroxy-6-methoxy-3-phenyl-1H-indene-2-carboxylic acid ethyl ester], a half-maximal response on human PPARγ (EC50) required 95 nM.
As for `CCOC(=O)C1=C(c2ccccc2)c2ccc(OC)cc2C1(O)C1CCCCC1` (centres unmarked) [Compound 6, 1-cyclohexyl-1-hydroxy-6-methoxy-3-phenyl-1H-indene-2-carboxylic acid ethyl ester], on human PPARγ, the EC50 came out at 50 nM.
In turn, `CCOC(=O)C1=C(c2ccccc2)c2ccc(OCCCc3ccccc3)cc2C1(O)c1ccccc1` (centres unmarked) [Compound 7, 1-hydroxy-1,3-diphenyl-6-(3-phenyl-propoxy)-1H-indene-2-carboxylic acid ethyl ester] returned an EC50 at human PPARγ of 25 nM.
By melting point is commonly meant the temperature, or range, at which the solid turns liquid. `CCOC(=O)C1=C(c2ccccc2)c2ccc(OCCN3CCOCC3)cc2C1(O)c1ccccc1` (centres unmarked) [Compound 8, 1-hydroxy-6-(2-morpholine-4-yl-ethoxy)-1,3-diphenyl-1H-indene-2-carboxylic acid ethyl ester] registered a melting point of 121 to 123 °C. The EC50 at human PPARγ was 75 nM.
On to `CCOC(=O)C1=C(c2ccccc2)c2ccc(OCCc3ccccn3)cc2C1(O)c1ccccc1` (centres unmarked) [Compound 10, 1-hydroxy-1,3-diphenyl-6-(2-pyridine-2-yl-ethoxy)-1H-indene-2-carboxylic acid ethyl ester], for which the midpoint of the response on human PPARγ, the EC50, lay at 150 nM.
In the case of `N#CC1=C(c2ccccc2)c2ccc(OCCCc3ccccc3)cc2C1(O)c1ccccc1` (centres unmarked) [Compound 11, 1-hydroxy-1,3-diphenyl-6-(3-phenyl-propoxy)-1H-indene-2-carbonitrile], on human PPARγ, the EC50 came out at 100 nM.
The molecule `COc1ccc2c(c1)C(O)(Cc1ccccc1)C(C(=O)O)=C2c1ccccc1` (centres unmarked) [Compound 15, 1-benzyl-1-hydroxy-6-methoxy-3-phenyl-1H-indene-2-carboxylic acid] registered an EC50 on human PPARγ of 230 nM.
Take `CCOC(=O)C1=C(c2ccccc2)c2ccc(OC)cc2C1OC` (centres unmarked) [Compound 18, 1,6-dimethoxy-3-phenyl-1H-indene-2-carboxylic acid ethyl ester]: a half-maximal response on human PPARγ (EC50) required 45 nM.
Molecule `CCOC(=O)C1=C(c2ccccc2)c2ccc(OC)cc2C1OCC` (centres unmarked) [Compound 19, 1-ethoxy-6-methoxy-3-phenyl-1H-indene-2-carboxylic acid ethyl ester] had an EC50 on human PPARγ of 20 nM.
At human PPARγ, `CCOC(=O)C1=C(c2ccccc2)c2ccc(OC)cc2C1NC(C)=O` (centres unmarked) [Compound 24, 1-acetylamino-6-methoxy-3-phenyl-1H-indene-2-carboxylic acid ethyl ester] had an EC50 of 50 nM.
In the case of `CCOC(=O)C1=C(c2ccccc2)c2ccc(OC)cc2C1NC(=O)CC` (centres unmarked) [Compound 25, 6-methoxy-3-phenyl-1-propionylamino-1H-indene-2-carboxylic acid ethyl ester], a half-maximal effect on human PPARγ (EC50) was put at 12 nM.
In turn, `CCOC(=O)C1=C(c2ccccc2)c2ccc(OCCCc3ccccc3)cc2C1NC(C)=O` (centres unmarked) [Compound 26, 1-acetylamino-3-phenyl-6-(3-phenyl-propoxy)-1H-indene-2-carboxylic acid ethyl ester] showed an EC50 on human PPARγ of 40 nM.
On human PPARγ, `CCOC(=O)C1=C(c2ccccc2)c2ccc(OC)cc2C1NC1CCCCC1` (centres unmarked) [Compound 32, 1-cyclohexyl amino-6-methoxy-3-phenyl-1H-indene-2-carboxylic acid ethyl ester] yielded an EC50 of 250 nM.
`CN(CCOc1ccc(CC2SC(=O)NC2=O)cc1)c1ccccn1` (centres unmarked) [Rosiglitazone, reference compound]: in the series with C57/BL6J mice [1], the GOT worked out at 40 ± 7.1 karmen, the GPT is 79 ± 8.3/ karmen, the “Heart Weight” value came to 0.133 ± 0.004 g and the “Liver Weight” value came to 1.35 ± 0.14 g. For the same molecule, in the series with C57/BL6J mice [1], the Weight is on record as 40 ± 1.6 g.
Take `CCOC(=O)C1=C(c2ccccc2)c2ccc(OCCN3CCOCC3)cc2C1(O)c1ccccc1` (centres unmarked) [The Inventive Compound, 1-hydroxy-6-(2-morpholine-4-yl-ethoxy)-1,3-diphenyl-1H-indene-2-carbo-xylic acid ethyl ester]: in the series on C57/BL6J mice [1] (administered orally or intraperitoneally), the “Side effects (summary in words)” value was “no side effects such as weight gain, hepatotoxicity or cardiotoxicity”. For the same molecule, in the series on C57/BL6J mice [1], the GOT is reported as 35 ± 6.2 karmen, the GPT was 47 ± 6.5/ karmen, the “Heart Weight” value was 0.117 ± 0.012 g and the “Liver Weight” value is listed as 1.22 ± 0.10 g. Further, the Weight in the series with C57/BL6J mice [1] came out at 37 ± 2.0 g. Moreover, the “Extent of Inhibition (%) of blood glucose level” value in the series on ob/ob mice [2] (Intraperitoneal Administration (50 mg/kg/day), once a day for 5 days) turned out to be 32.0%. In addition, the “Extent of Inhibition (%) of blood glucose level” value with ob/ob mice [2] (Oral Administration (100 mg/kg/day), 14 days) came out at 23.7%. For the same molecule, in the series on C57/BL6J mice [3], the “Inhibition Ratio (%), Oral Glucose Tolerance Test (Glucose)” value is on record as 23.8% and the “Inhibition Ratio (%), Oral Glucose Tolerance Test (Insulin)” value is 56.2%. The “Extent of Inhibition (%), Oral Glucose Tolerance Test (Blood Glucose)” value in the series on ob/ob mice [4] is 10.2%. The “Effect in lowering blood glucose and insulin levels (summary in words)” value in the series with C57/BL6J mice [5] (administered orally or intraperitoneally, Tables 6, 7 and 8) was “excellent effect in lowering both blood glucose and insulin levels”. Also, in the series on C57/BL6J mice [5] (setting [6]), the “Inhibition Ratio (%), Blood Insulin level” value was found to be 44.6% and the “Inhibition Ratio (%), Blood glucose level” value is listed as 30.0%.
